Assay results taken from patent US20120115128A1, “SELECTIVE PROTEIN LABELING” (THE BOARD OF TRUSTEES OF THE UNIVERSITY OF ILLINOIS, priority 2009, published 2012).
≈ marks a conversion by molar mass, not a printed value. Like-named read-outs stand apart in the source and are kept apart here.

Columns and labels:
[1] = test system: nucleus-targeted pfDHFR (K27E, C59R, S108N) soluble domain in NIH 3T3 fibroblast cells; conditions: 500 nM, ca. 15 minutes
E. coli (strain DH5α) = test: E. coli growth inhibition assay (MIC on agar plates); format: cell-based; conditions: for MIC: Escherichia coli, read-out: minimum inhibitory concentration (MIC)
Description: E. coli growth inihibition assay. […] The minimal inhibitory concentration (MIC) was reported as the lowest concentration at which no colonies formed.

human cells = conditions: cited from earlier work
human leukocytes = conditions: cited from earlier work
eDHFR = target: T1, eDHFR (Escherichia coli, UniProt P0ABQ4); test: biochemical; set-up: species or system E. coli; conditions: terbium-complexed probe 20 nM, purified eDHFR-GFP, non-linear least-squares fit; read-out: dissociation constant for binding to eDHFR
T1 construct: pRSETb-EGFP-eDHFR expressed the protein fusion […]-[EGFP]-GSGGSG-[eDHFR]; His6 leader of pRSETb ([…]) (N); made in house; host or cells: E. coli BL21 DE3 (pLysS)

[2] = target: eDHFR expressed on the cell surface of NIH3T3 fibroblasts (Escherichia coli, UniProt P0ABQ4); test: Labeling of cell surface-expressed eDHFR (pDisplay-eDHFR) on NIH3T3 fibroblasts, microscopy; format: cell-based; conditions: 1 μM, 10 min, time-resolved imaging
[3] = target: T2, GFP-cldn1/tail (N-terminal fusion of EGFP to the C-terminal cytoplasmic domain, residues 187-211, of human … (human, UniProt O95832 187-211, not fully specified)); test: intermolecular TR-FRET microscopy in living MDCK cells; reference pair ZO-1/PDZ1-eDHFR and GFP-cldn1/tailΔYV
T2 construct: Expressed in living MDCK cells; GFP is the FRET acceptor; also called C-terminal cytoplasmic tail of claudin-1; not shown: enhanced GFP (EGFP) as encoded in vector pEGFP-C1 (Clontech)
T2 chain (looked up): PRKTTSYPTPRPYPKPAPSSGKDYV

[4] = target: T2, GFP-cldn1/tail (N-terminal fusion of …); test: intermolecular TR-FRET microscopy in living MDCK cells; sensitized GFP emission at 520 nm
[5] = target: GFP-cldn1/tailΔYV (GFP-cldn1/tail construct lacking the C-terminal YV motif) (human) (UniProt O95832); test: as above

In the case of `CCOc1cc(Cc2cnc(N)nc2N)ccc1OCc1cc(OC)c(OCCCCC(=O)NCCOCCOCCNC(=O)OC(C)(C)C)c(OC)c1` [Compound 2a], the “cell permeability (diffuse fluorescence)” value [1] is reported as “passively diffused into mammalian cells” and the MIC (E. coli (strain DH5α); 37° C., 24 hours, lowest concentration at which no colonies formed) is reported as about 20 µM (≈ 15.1 µg/mL).

In the case of `CN(Cc1cnc2nc(N)nc(N)c2n1)c1ccc(C(=O)N[C@@H](CCC(=O)O)C(=O)O)cc1` [MTX, Methotrexate], the “extracellular concentration at which DNA damage has been observed” value (human cells) is listed as 10 µM and the “concentration at which toxicity observed” value (human leukocytes) is listed as 2000 nM.

For `COc1cc(Cc2cnc(N)nc2N)cc(OC)c1OCCCCC(=O)NCCOCCOCCNC(=O)CN(CCN(CCN(CC(=O)O)CC(=O)Nc1ccc2c(C)cc(=O)[nH]c2c1)CC(=O)O)CC(=O)O` [TMP-cDTPA], the Kd (eDHFR) was 9 ± 1.3 nM and the “cell-surface labelling of eDHFR, time-resolved mode” value [2] was “not”.

In the case of `COc1cc(Cc2cnc(N)nc2N)cc(C#CCCCC(=O)O)c1OCCCCC(=O)NCCOCCOCCN` [Compound 3a], the “ability to cross the E. coli cell membrane (inferred from growth assay)” value (E. coli (strain DH5α)) is reported as “cannot cross the cell membrane” and the MIC (E. coli (strain DH5α); 24 h) is reported as over 100 µM.

B1: ZO-1/PDZ1-eDHFR (C-terminal fusion of eDHFR to the PDZ1 domain, residues 19-113, of human ZO-1) (other, human;Escherichia coli)
chain: MWEQHTVTLHRAPGFGFGIAISGGRDNPHFQSGETSIVISDVLKGGPAEGQLQENDRVAMVNGVSMDNVEHAFAVQQLRKSGKNAKITIRRKKKVQMISLIAALAVDRVIGMENAMPWNLPADLAWFKRNTLNKPVIMGRHTWESIGRPLPGRKNIILSSQPGTDDRVTWVKSVDEAIAACGDVPEIMVIGGGRVYEQFLPKAQKLYLTHIDAEVEGDTHFPDYEPDDWESVFSEFHDADAQNSHSYCFEILERR
notes: Built by inserting ZO-1 19-113 into pLL-1NLS in frame with eDHFR; also called PDZ1 domain of ZO-1
In the case of B1, the “fold difference in TR-FRET signal against GFP-cldn1/tailΔYV” value [3] is reported as over 4 fold, the “signal-to-noise ratio for intermolecular TR-FRET” value [4] is reported as 6.3 and the signal-to-noise ratio for intermolecular TR-FRET [5] is reported as 1.5.
